Patent US20190202885A1, “TauT (taurine transporter) peptide cancer vaccine” (priority 2017, published 2019)
Where no end group is shown, it is not given here.

Legend:
p53^−/− mice = assay: TauT-peptide vaccination of p53−/− mice: tumor development and lifespan; format: in vivo
Procedure: To evaluate the efficacy of TauT-peptide as a cancer vaccine, p53^−/− (C57BL/6J background) were injected with either TauT-peptide (100 μg/kg) or vehicle only at the age of 4 weeks and boosted 2 weeks later (n=12 for each group). All mice were observed daily for signs of morbidity and the development of tumors.
To test TauT-peptide vaccine, p53 knockout (KO) mice were immunized with 100 μg/kg and boosted with an equal amount of antigen 2 weeks late. […] Mice were bled on Days 21 and 36 to measure the antibody response.
To evaluate the efficacy of TauT-peptide as a cancer vaccine, p53 null (C57BL/6J background) were injected with either TauT-peptide (100 μg/kg) or vehicle only at the age of 4 weeks and boosted 2 weeks later (n=12 for each group). All mice were observed daily for signs of morbidity and the development of tumors.

p53^+/− mice = assay: TauT-peptide vaccination of p53+/− mice: tumor development and lifespan; format: in vivo
Procedure: FIG. 2A and FIG. 2B. TauT-peptide vaccination prolongs p53^+/− mice lifespan. To evaluate the efficacy of TauT-peptide as a cancer vaccine, p53^+/− (C57BL/6J background) were injected with either TauT-peptide (100 μg/kg) or vehicle only at the age of 4 weeks and boosted 2 weeks later (n=15 for each group). All mice were observed daily for signs of morbidity and the development of tumors. The p53^+/− control mice started to develop tumor (mainly osteosarcoma) at the age of 186 day (FIG. 2A). The median lifespan for p53^+/− control mice was 315 days (FIG. 2B), which consistent with other studies. […] TauT-peptide vaccination delayed tumor develops in all vaccinated p53^+/− mice, which started to develop tumor (mainly osteosarcoma) and died at the age of 526 days (FIG. 2A).
TauT-peptide (SEQ ID NO 3) was coupled to KLH with a kit (Imject SuperCarrier EDC system for Peptides; Pierce). To test TauT-peptide vaccine, p53 knockout (KO) mice were immunized with 100 μg/kg and boosted with an equal amount of antigen 2 weeks late. To develop and test TauT-Ab, wild type control mice were immunized with 100 μg/kg TauT-peptide and boosted with an equal amount of antigen 2 weeks late. Mice were bled on Days 21 and 36 to measure the antibody response. Antisera were collected on Day 49 and purified by affinity column chromatography (Pierce). Antisera were stored at −80° C. Specificity of the antibody was determined by Western blot analysis (10).

[1] = p53−/− mice, 100 μg/kg at 4 weeks of age, boosted 2 weeks later
[2] = p53−/− mice, 100 μg/kg at 4 weeks of age, boosted 2 weeks later, n=12
[3] = p53+/− mice, 100 μg/kg at 4 weeks of age, boosted 2 weeks later, n=15

## TauT-peptide vaccine: TauT-peptide (SEQ ID NO 3) comprising amino acid residues 313-326 of TauT (SLC6A6), coupled to KLH, used as peptide vaccine (GSYNKYKYNSYRDC; also: coupled to KLH carrier, site not given here)
p53^−/− mice; p53−/− mice vaccinated
  response to the vaccine: 100%
p53^−/− mice; [1]
  age at which mice started to develop tumor (mainly lymphoma) and died: 6.3 months
  lifespan: 6.9 months
p53^−/− mice; [2]
  age at which mice started to develop tumor (mainly lymphoma): 189 days
  median lifespan: 207 days
p53^−/− mice; p53−/− mice, vaccinated vs vehicle control
  increase of (median) lifespan versus control: 1.5 fold
p53^+/− mice; p53+/− mice vaccinated
  response to the vaccine: 100%
p53^+/− mice; [3]
  age at which mice started to develop tumor (mainly osteosarcoma) and died: 526 days
  median lifespan: 621 days
